In patent US20230390416A1, “COMPOSITIONS FOR INDUCING TUMOR IMMUNITY AND REDUCING DRUG TOLERANCE” (The Brigham and Women's Hospital, Inc., priority 2020, published 2023):
Each block holds one molecule with its values, some of them ahead of it.

Legend:
[1] = system: MDA-MB-468 DTCCs; experiment: MICA/B expression by flow cytometry in DTCCs under Hsp90 inhibitors; type: cell-based, human; conditions: % MICA/B positively expressing cells, vehicle 54.7 ± 3.9
Procedure: (§1) Two schedules of drugs in combination were administered to the indicated TNBC parental cell lines (A). […] Plots generated using constant ratio drug combination. […] N=11 in biological replicate. • (D) Quantification of MICA/B mean fluorescence, corrected for background by negative control. […] N≥4 in biological replicate. • (I) In vitro drug synergy was determined using the Chau-Talalay method. Two schedules of drugs in combination were administered to the indicated TNBC parental cell lines (A). […] Plots generated using constant ratio drug combination. Values falling below 1.0 combination index=synergy. • (J) In silico prediction model of drug schedule on signaling pathways. […] The first drug was administered at the beginning of the experiment (t=0), followed by the second drug after 48 h (t=48). […] GAPDH loading control.
(§2) Human MDA-MB-231, MDA-MB-468, MDA-MB-436, MCF-7, mammary carcinoma 4T-1 cells (ATCC) and SUM159 (Bioivt) were purchased in the last 10 years and cultured in 10% fetal bovine serum in DMEM or RPMI media (Invitrogen, Carlsbad CA, USA). Cell lines were validated for absence of mycoplasma prior to use, by the sourcing agency. Cells were used within 10 passages from frozen stock vials obtained from the sourcing agency.

[2] = system: MDA-MB-231 DTCCs; experiment: as above; type: cell-based, human; conditions: % MICA/B positively expressing cells, overnight (radicicol 5 μM, FIG. 3C), vehicle 76.2 ± 1.1
Procedure: as §1, §2

[3] = system: SUM 159 DTCCs; experiment: as above; type: cell-based, human; conditions: % MICA/B positively expressing cells, vehicle 30.6 ± 0.9
Procedure: as §1, §2

[4] = clinical Cmax from published literature; used as ex vivo treatment concentration, 72 hours; cited from earlier work
[5] = NPs exemplified in U.S. Pat. No. 10,300,143; cited from earlier work
[6] = system: Hsp90
[7] = system: MDA-MB-231 DTCCs; experiment: Fluorescent lipid uptake by flow cytometry, DTCCs vs DNCCs; type: cell-based, human; conditions: for uptake into DTCCs vs. DNCCs: fluorescently labeled lipids, flow cytometry
[8] = system: MDA-MB-468; experiment: as above; type: cell-based, human; conditions: multiple TNBC cell lines using epithelial-like MDA-MB-468
[9] = system: DTCCs; experiment: Western blot of DTCCs after transient exposure to Rad-NP or radicicol free drug; type: cell-based; conditions: 4 hours exposure, wash-out; in most cases
Procedure: Protein samples were resolved by SDS-PAGE and transferred to PVDF membranes prior to incubation at 4° C. with indicated primary antibodies, mTOR and pMTOR^Ser2448, pAKT^Thr308 and AKT, Phospho-p44/42 MAPK (Erk1/2)^Thr202/Tyr204, p44/42 MAPK (Erk1/2) pPRAS40^Thr246 pSTAT3^Tyr705, STAT3, PRAS40 and β-Actin antibodies were purchased from Cell Signaling Technology, pHck^Tyr410 (Thermo Fisher Scientific) MICA/B (R&D Systems, Minneapolis, MN) and HSF-1 and HSF-1^Ser326 (abcam).

- MICA (%) ± SEM [1]: 70.1 ± 3.0%
- MICA (%) ± SEM [2]: 82.5 ± 2.2%
- MICA (%) ± SEM [3]: 35.4 ± 6.0%
Molecule: CC(C)c1cc(-c2n[nH]c(=O)n2-c2ccc3c(ccn3C)c2)c(O)cc1O [Ganetespib, ganetespib]

Molecule: C=C1C[C@@H]2CC[C@@]34C[C@H]5O[C@H]6[C@@H](O3)[C@H]3O[C@H](CC[C@@H]3O[C@H]6[C@H]5O4)CC(=O)C[C@@H]3[C@@H](OC)[C@@H](C[C@H](O)CN)O[C@H]3C[C@H]3O[C@@H](CC[C@@H]1O2)C[C@@H](C)C3=C [Eribulin]
- Cmax (concentration used) [4]: 0.371 µg/mL

Molecule: Oc1cccc(-c2nc(N3CCOCC3)c3oc4ncccc4c3n2)c1 [PI-103]
- incorporation efficiency [5]: 55-65%

Molecule: CC(=O)O[C@@]12CO[C@@H]1C[C@H](O)[C@@]1(C)C(=O)[C@H](O)C3=C(C)[C@@H](OC(=O)[C@H](O)[C@@H](NC(=O)OC(C)(C)C)c4ccccc4)C[C@@](O)([C@@H](OC(=O)c4ccccc4)[C@H]21)C3(C)C [Docetaxel, docetaxel]
- active form of HSF-1 (Ser326) ([6]; parental MDA-MB-231 cells under docetaxel drug pressure, western blot): induced the active form of HSF-1 (Ser326)
- Cmax (concentration used) [4]: 2 µg/mL

Molecule: C/C(=C\c1csc(C)n1)[C@@H]1C[C@@H]2O[C@]2(C)CCC[C@H](C)[C@H](O)[C@@H](C)C(=O)C(C)(C)[C@@H](O)CC(=O)N1 [Ixabepilone]
- Cmax (concentration used) [4]: 0.252 µg/mL

Molecule: Nc1ccn([C@@H]2O[C@H](CO)[C@@H](O)C2(F)F)c(=O)n1 [Gemcitabine]
- Cmax (concentration used) [4]: 22.3 µg/mL

Molecule: Nc1ccc(-c2cccc3c(=O)cc(N4CCOCC4)oc23)cc1 [PI-828]
- incorporation efficiency [5]: ~40%

Molecule: CCCCCCCC/C=C\CCCCCCCC(=O)OC[C@H](COP(=O)(O)O)OC(=O)CCCCCCCCCCCNc1ccc([N+](=O)[O-])c2nonc12.N.N [phosphatidic acid (PA), 1-oleoyl-2-{12-[(7-nitro-2-1,3-benzoxadiazol-4-yl)amino]dodecanoyl}-sn-glycero-3-phosphate (ammonium salt)]
- uptake into DTCCs vs. DNCCs [7]: to a lesser degree

Molecule: Pembrolizumab: clinically-approved anticancer drug
- Cmax (concentration used) [4]: 65.7 µg/mL

Molecule: CCCCCOC(=O)Nc1nc(=O)n([C@@H]2O[C@H](C)[C@@H](O)[C@H]2O)cc1F [Capecitabine]
- Cmax (concentration used) [4]: 3.9 µg/mL

Molecule: CC(C)NCCCn1c(Sc2cc3c(cc2I)OCO3)nc2c(N)ncnc21 [PU-H71]
- cytoplasmic sequestration of HSF-1 Ser326 and activation of pro-survival proteins ([6]; DTCCs, confocal microscopy and western blot): reversed cytoplasmic sequestration of HSF-1^Ser326 and activation of pro-survival proteins
- MICA (%) ± SEM [1]: 71.9 ± 4.2%
- MICA (%) ± SEM [2]: 79.5 ± 0.4%
- MICA (%) ± SEM [3]: 33.3 ± 4.1%

Molecule: CCCCCCCC/C=C\CCCCCCCC(=O)OC[C@H](COP(=O)([O-])OCC[N+](C)(C)C)OC(=O)CCCCCNc1ccc([N+](=O)[O-])c2nonc12 [phosphatidylcholine (PC), 1-oleoyl-2-{6-[(7-nitro-2-1,3-benzoxadiazol-4-yl)amino]hexanoyl}-sn-glycero-3-phosphocholine]
- rate of internalization in DTCC vs DNCC ([7]; checked at definite time intervals): higher rate of internalization
- uptake into DTCCs vs. DNCCs [7]: significantly increased uptake into DTCCs vs. DNCCs
- specificity of binding to DTCCs [8]: bound with the highest degree of specificity

Molecule: CC(=O)O[C@H]1C(=O)[C@@]2(C)[C@H]([C@H](OC(=O)c3ccccc3)[C@]3(O)C[C@H](OC(=O)[C@H](O)[C@@H](NC(=O)c4ccccc4)c4ccccc4)C(C)=C1C3(C)C)[C@]1(OC(C)=O)CO[C@@H]1C[C@@H]2O [Paclitaxel]
- Cmax [4]: 6.91 µM

Molecule: C[C@@H]1C[C@H]2O[C@@H]2/C=C\C=C\C(=O)Cc2c(Cl)c(O)cc(O)c2C(=O)O1 [Radicicol, radicicol]
- time of rescue of signaling disruption [9]: ≤ 36 h

Molecule: CC(CCC[C@@H](C)[C@@H]1CC[C@H]2[C@@H]3CC=C4C[C@@H](O)CC[C@]4(C)[C@H]3CC[C@@]21C)N(C)c1ccc([N+](=O)[O-])c2nonc12 (some centres unmarked) [cholesterol, 25-[N-[(7-nitro-2-1,3-benzoxadiazol-4-yl)methyl]amino]-27-norcholesterol]
- uptake into DTCCs vs. DNCCs [7]: significantly increased uptake into DTCCs vs. DNCCs
- specificity of binding to DTCCs [8]: bound with the highest degree of specificity

Molecule: CCC1=C[C@@H]2CN(C1)Cc1c([nH]c3ccccc13)[C@@](C(=O)OC)(c1cc3c(cc1OC)N(C)[C@H]1[C@@](O)(C(=O)OC)[C@H](OC(C)=O)[C@]4(CC)C=CCN5CC[C@]31[C@@H]54)C2 [Vinorelbine]
- Cmax (concentration used) [4]: 0.1266 µg/mL

Molecule: N.N.O=C([O-])C1(C(=O)[O-])CCC1.[Pt+2] [Carboplatin]
- Cmax (concentration used) [4]: 37.1 µg/mL
